Structures can show the parent of a compound that is named as a salt. Where two headings read alike, the source gives them in different places. Where a SMILES comes first, the peptide text is derived from it. The star is where a group is joined. Cbz = O=C(OCc1ccccc1)*
Experiments:
[1] = biological target: T1, SARS-CoV-2 PLpro (nsp3 1564–1878) (Severe acute respiratory syndrome coronavirus 2, UniProt P0DTD1); assay: biochemical; set-up: FRET-quenched peptide (Pro3) cleavage by PLpro, 10 min pre-incubation, slope over 20 min, normalised to no-compound control; conditions: low concentration screen, read-out: % of control remaining
[2] = biological target: T1, SARS-CoV-2 PLpro (nsp3 1564–1878); assay: biochemical; set-up: FRET-quenched peptide (Pro3) cleavage by PLpro, 10 min pre-incubation, slope over 20 min, normalised to no-compound control; conditions: high concentration screen, read-out: % of control remaining

SMILES: CN1C[C@H](CO)C=C2c3cccc4[nH]cc(c34)C[C@H]21 [Lysergol]
- remaining activity at 1.25 µM ([1]; Well no.=3382): 96.8%
- remaining activity at 3.75 µM ([2]; Well no.=3382): 93.3%

SMILES: CCCCCCCC/C=C\CCCCCCCC(=O)OC[C@@H](O)COP(=O)(O)O [Lysophosphatidic acid]
- remaining activity at 1.25 µM ([1]; Well no.=4497): 97.9%
- remaining activity at 3.75 µM ([2]; Well no.=4497): 105%

SMILES: CCc1cnc(N2CCC(c3nc(COc4ccc(-n5cnnn5)cc4)cs3)CC2)nc1 [MBX-2982]
- remaining activity at 1.25 µM ([1]; Well no.=8381): 102%
- remaining activity at 3.75 µM ([2]; Well no.=8381): 99.5%

SMILES: Cn1cc(/C=C/C(=O)c2cccc(F)c2)cc1/C=C/C(=O)NO [MC1568]
- remaining activity at 1.25 µM ([1]; Well no.=4905): 102%
- remaining activity at 3.75 µM ([2]; Well no.=4905): 101%

SMILES: CC1=NN(c2ccccc2)C(=O)C1 [MCI-186]
- remaining activity at 1.25 µM ([1]; Well no.=3901): 103%
- remaining activity at 3.75 µM ([2]; Well no.=3901): 103%

SMILES: COc1ccc(C(=O)/C=C/c2cc(OC)c(OC)c(OC)c2)cc1OC [MD2-IN-1]
- remaining activity at 1.25 µM ([1]; Well no.=8739): 100%
- remaining activity at 3.75 µM ([2]; Well no.=8739): 95.8%

SMILES: CCCCCCn1c(O)c(N=NC(=O)c2ccccc2)c2ccccc21 [MDA 19]
- remaining activity at 1.25 µM ([1]; Well no.=7099): 103%
- remaining activity at 3.75 µM ([2]; Well no.=7099): 103%

SMILES: O=C1C(=O)N(Cc2ccc(Cl)c(Cl)c2)c2ccccc21 [MDK83190]
- remaining activity at 1.25 µM ([1]; Well no.=6404): 101%
- remaining activity at 1.25 µM ([1]; Well no.=8130): 94.6%
- remaining activity at 3.75 µM ([2]; Well no.=6404): 99.4%
- remaining activity at 3.75 µM ([2]; Well no.=8130): 90%

SMILES: c1ccc([C@@H]2CCC[C@@H]2NC2=NCCCCCCCCCCC2)cc1 [MDL 12,330A hydrochloride]
- remaining activity at 1.25 µM ([1]; Well no.=993): 103%
- remaining activity at 3.75 µM ([2]; Well no.=993): 101%

SMILES: NCCC1CCCC(CCN)N1 (centres unmarked) [MDL 26,630 trihydrochloride]
- remaining activity at 1.25 µM ([1]; Well no.=945): 103%
- remaining activity at 3.75 µM ([2]; Well no.=945): 104%

SMILES: O=C(O)/C(=C/c1c(C(=O)O)[nH]c2cc(Cl)cc(Cl)c12)c1ccccc1 [MDL 105,519]
- remaining activity at 1.25 µM ([1]; Well no.=803): 95%
- remaining activity at 3.75 µM ([2]; Well no.=803): 93%

SMILES: CC(C)[C@H](NC(=O)OCc1ccccc1)C(=O)N[C@H](C=O)Cc1ccccc1 [MDL 28170] (Cbz-Val-Phe-aldehyde)
- remaining activity at 1.25 µM ([1]; Well no.=790): 106%
- remaining activity at 3.75 µM ([2]; Well no.=790): 105%

SMILES: CNC(=O)c1ccc(N2C(=S)N(c3ccc(C#N)c(C(F)(F)F)c3)C(=O)C2(C)C)cc1F [MDV3100 (Enzalutamide)]
- remaining activity at 1.25 µM ([1]; Well no.=4759): 102%
- remaining activity at 3.75 µM ([2]; Well no.=4759): 104%

SMILES: CC(C)(CCCCCCCCCCC(C)(C)CC(=O)O)CC(=O)O [MEDICA 16]
- remaining activity at 1.25 µM ([1]; Well no.=5805): 91.5%
- remaining activity at 3.75 µM ([2]; Well no.=5805): 91.6%

SMILES: N#C/C(=C(/N)Sc1ccc(N)cc1)c1ccccc1C(F)(F)F [MEK1/2 Inhibitor]
- remaining activity at 1.25 µM ([1]; Well no.=2562): 94.4%
- remaining activity at 3.75 µM ([2]; Well no.=2562): 96.8%

SMILES: O=C1C(Cl)=C(N2C(=O)CCC2=O)C(=O)c2ccccc21 [MEK Inhibitor II]
- remaining activity at 1.25 µM ([1]; Well no.=2560): 98%
- remaining activity at 3.75 µM ([2]; Well no.=2560): 98.5%

SMILES: CC[N+](CC)(CC)CCOc1ccc(/C=C/c2ccccc2)cc1 [MG 624]
- remaining activity at 1.25 µM ([1]; Well no.=972): 100%
- remaining activity at 3.75 µM ([2]; Well no.=972): 101%

SMILES: CC(C)C[C@@H](C=O)NC(=O)[C@H](CC(C)C)NC(=O)[C@H](CC(C)C)NC(=O)OCc1ccccc1 [MG-132] (Cbz-Leu-Leu-Leu-aldehyde)
- remaining activity at 1.25 µM ([1]; Well no.=8436): 96.8%
- remaining activity at 3.75 µM ([2]; Well no.=8436): 97.5%

SMILES: Cn1nc(C(F)(F)F)cc1-c1cnc(N2CCc3cc(S(=O)(=O)Nc4c(F)cc(Cl)cc4F)cc(N4CCCC4=O)c32)nc1 [MGAT2-IN-1]
- remaining activity at 1.25 µM ([1]; Well no.=8422): 94.8%
- remaining activity at 3.75 µM ([2]; Well no.=8422): 93.1%

SMILES: COc1cc(C(O)CO)ccc1OS(=O)(=O)O (centres unmarked) [MHPG sulfate potassium]
- remaining activity at 1.25 µM ([1]; Well no.=710): 93%
- remaining activity at 3.75 µM ([2]; Well no.=710): 90.8%

SMILES: CC(C)(C)C[C@@H]1N[C@@H](C(=O)N[C@H]2CC[C@H](O)CC2)[C@H](c2cccc(Cl)c2F)[C@]12C(=O)Nc1cc(Cl)ccc12 [MI-773]
- remaining activity at 1.25 µM ([1]; Well no.=6488): 96.1%
- remaining activity at 1.25 µM ([1]; Well no.=8278): 102%
- remaining activity at 3.75 µM ([2]; Well no.=6488): 93%
- remaining activity at 3.75 µM ([2]; Well no.=8278): 97.3%

SMILES: CN1CCN(c2ccc3nc(-c4cc(C(C)(C)C)c(OCCCC(=O)NCCCN=[N+]=[N-])c(C(C)(C)C)c4)[nH]c3c2)CC1 [MIR96-IN-1]
- remaining activity at 1.25 µM ([1]; Well no.=7014): 94.6%
- remaining activity at 3.75 µM ([2]; Well no.=7014): 81.9%

SMILES: O=C(ON1C(=O)CCC1=O)N1CCN(C(c2ccc(Cl)cc2)c2ccc(Cl)cc2)CC1 [MJN110]
- remaining activity at 1.25 µM ([1]; Well no.=5560): 97.4%
- remaining activity at 3.75 µM ([2]; Well no.=5560): 100%

SMILES: O=C(CCCc1ccc(-c2ccccc2F)cc1)Nc1ccc(O)cc1 [MK2a Inhibitor]
- remaining activity at 1.25 µM ([1]; Well no.=2548): 94.2%
- remaining activity at 3.75 µM ([2]; Well no.=2548): 102%

SMILES: Cn1ncnc1COc1nn2c(-c3c(F)cccc3F)nnc2cc1C1CCC1 [MK-0343]
- remaining activity at 1.25 µM ([1]; Well no.=5828): 101%
- remaining activity at 3.75 µM ([2]; Well no.=5828): 102%

SMILES: O=C1O[C@]2(CC[C@H](C(=O)Nc3ccn(-c4ccccc4F)n3)CC2)c2cnccc21 [MK-0557]
- remaining activity at 1.25 µM ([1]; Well no.=6987): 104%
- remaining activity at 3.75 µM ([2]; Well no.=6987): 104%

SMILES: CN(C)C(=O)CCSC(SCCC(=O)O)c1cccc(/C=C/c2ccc3ccc(Cl)cc3n2)c1 (centres unmarked) [MK-571 (sodium salt)]
- remaining activity at 1.25 µM ([1]; Well no.=7859): 91.6%
- remaining activity at 3.75 µM ([2]; Well no.=7859): 91.2%

SMILES: O=C(O)CC[C@H]1CC[C@@](c2cc(F)ccc2F)(S(=O)(=O)c2ccc(Cl)cc2)CC1 [MK-0752]
- remaining activity at 1.25 µM ([1]; Well no.=4639): 97.6%
- remaining activity at 3.75 µM ([2]; Well no.=4639): 99.5%

SMILES: CO[C@@H]1COCC[C@@H]1N[C@@H]1CC[C@@](C(=O)N2CCc3ncc(C(F)(F)F)cc3C2)(C(C)C)C1 [MK-0812 (Succinate)]
- remaining activity at 1.25 µM ([1]; Well no.=8321): 97.5%
- remaining activity at 3.75 µM ([2]; Well no.=8321): 97.9%

SMILES: CC(C)c1ccc2c(c1)c(SC(C)(C)C)c(CC(C)(C)C(=O)O)n2Cc1ccc(Cl)cc1 [MK-886 (L-663,536)]
- remaining activity at 1.25 µM ([1]; Well no.=8678): 96.7%
- remaining activity at 3.75 µM ([2]; Well no.=8678): 94.2%

SMILES: CC(C)c1ccc2c(c1)c(SC(C)(C)C)c(CC(C)(C)C(=O)O)n2Cc1ccc(Cl)cc1 [MK-886]
- remaining activity at 1.25 µM ([1]; Well no.=1018): 105%
- remaining activity at 3.75 µM ([2]; Well no.=1018): 104%

SMILES: CN1CC[C@]2(CCN3CCc4c(oc5ccccc45)[C@@H]3C2)N(C)C1=O [MK-912]
- remaining activity at 1.25 µM ([1]; Well no.=934): 101%
- remaining activity at 3.75 µM ([2]; Well no.=934): 104%

SMILES: O=C(N[C@@H]1CC[C@@H](c2cccc(F)c2F)CN(CC(F)(F)F)C1=O)N1CCC(n2c(=O)[nH]c3ncccc32)CC1 [MK-0974]
- remaining activity at 1.25 µM ([1]; Well no.=7709): 102%
- remaining activity at 3.75 µM ([2]; Well no.=7709): 108%

SMILES: C=CCn1c(=O)c2cnc(Nc3ccc(N4CCN(C)CC4)cc3)nc2n1-c1cccc(C(C)(C)O)n1 [MK-1775]
- remaining activity at 1.25 µM ([1]; Well no.=4947): 102%
- remaining activity at 3.75 µM ([2]; Well no.=4947): 99.7%

SMILES: CCN1C[C@H](C)n2c(c(O)c3c(=O)n(Cc4ccc(F)c(Cl)c4)nc(C(=O)NC)c32)C1=O [MK-2048]
- remaining activity at 1.25 µM ([1]; Well no.=4731): 107%
- remaining activity at 3.75 µM ([2]; Well no.=4731): 104%

Source: paper PMC8286840, “Identifying SARS-CoV-2 antiviral compounds by screening for small molecule inhibitors of Nsp3 papain-like protease” (Biochemical Journal, 2021)
